Assays:
Puccinia recondita = assay: In vivo preventive test on Puccinia recondita (brown rust on wheat); conditions: 500 ppm, wheat plants sprayed 24 h before contamination, graded 12 days after contamination
Protocol: Wheat plants (“Scipion” variety), sown in starter cups on a 50/50 peat soil-pozzolana substrate and grown at 22° C., are treated at the 1-leaf stage (10 cm height) by spraying with the active ingredient prepared as described above. Plants, used as controls, are treated with the mixture of acetone/tween/DMSO/water not containing the active material. After 24 hours, the plants are contaminated by spraying the leaves with an aqueous suspension of Puccinia recondita spores (100 000 spores per ml). The spores are collected from an infected plant and are suspended in water to containing 2.5 ml/l of Tween 80 at 10%. […] Grading (% of efficacy) is carried out 12 days after the contamination, in comparison with the control plants.

Uromyces appendiculatus = assay: In vivo preventive test on Uromyces appendiculatus (bean rust); conditions: preventive, bean plants, dose of 500 ppm, grading 11 days after contamination
Protocol: Bean plants (“Saxa” variety), sown in starter cups on a 50/50 peat soil-pozzolana substrate and grown at 24° C., are treated at the 2-leaf stage (9 cm height) by spraying with the active ingredient prepared as described above. Plants, used as controls, are treated with the mixture of acetone/tween/DMSO/water not containing the active material. After 24 hours, the plants are contaminated by spraying the leaves with an aqueous suspension of Uromyces appendiculatus spores (150 000 spores per ml). The spores are collected from infected plants and are suspended in water containing 2.5 ml/1 of Tween 80 at 10%. […] Grading (% of efficacy) is carried out 11 days after the contamination, in comparison with the control plants.

[1] = system: Fusarium nivale (var. majus); assay: In vivo Fusarium nivale (var. majus) test (wheat)/preventive; conditions: 500 ppm, wheat plants, preventive, evaluated 5 days after inoculation
Protocol: • Solvent: 49 parts by weight of N,N-dimethylacetamide • Emulsifier: 1 part by weight of alkylaryl polyglycol ether To produce a suitable preparation of active compound, 1 part by weight of active compound or active compound combination is mixed with the stated amounts of solvent and emulsifier, and the concentrate is diluted with water to the desired concentration. To test for preventive activity, young plants are sprayed with the preparation of active compound or active compound combination at the stated rate of application. After the spray coating has been dried, the plants are slightly injured by using a sandblast and afterwards they are sprayed with a conidia suspension of Fusarium nivale (var. majus). The plants are placed in the greenhouse under a translucent incubation cabinet at a temperature of approximately 10° C. and a relative atmospheric humidity of approximately 100%.

Septoria tritici = assay: In vivo preventive test on Septoria tritici (leaf spot on wheat); conditions: 500 ppm, wheat plants sprayed 24 h before contamination, graded 24 days after contamination
Protocol: Wheat plants (“Scipion” variety), sown in starter cups on a 50/50 peat soil-pozzolana substrate and grown at 22° C., are treated at the 1-leaf stage (10 cm height) by spraying with the active ingredient prepared as described above. Plants, used as controls, are treated with the mixture of acetone/tween/DMSO/water not containing the active material. After 24 hours, the plants are contaminated by spraying the leaves with an aqueous suspension of cryopreserved Septoria tritici spores (500 000 spores per ml). The contaminated wheat plants are incubated for 72 hours at 18° C. and at 100% relative humidity, and then for 21 days at 90% relative humidity. Grading (% of efficacy) is carried out 24 days after the contamination, in comparison with the control plants.

Sphaerotheca fuliginea = assay: In vivo preventive test on Sphaerotheca fuliginea (powdery mildew on cucurbits); conditions: 500 ppm, gherkin plants sprayed 24 h before contamination, graded 12 days after contamination
Protocol: Gherkin plants (“Vert petit de Paris” variety), sown in starter cups on a 50/50 peat soil-pozzolana substrate and grown at 24° C., are treated at the Z11 cotyledon stage by spraying with the active ingredient prepared as described above. Plants, used as controls, are treated with the mixture of acetone/tween/DMSO/water not containing the active material. After 24 hours, the plants are contaminated by spraying the cotyledons with an aqueous suspension of Sphaerotheca fuliginea spores (100 000 spores per ml). The spores are collected from infected plants. […] Grading (% of efficacy) is carried out 12 days after the contamination, in comparison with the control plants.

Alternaria brassicae = assay: In vivo preventive test on Alternaria brassicae (leaf spot on radish); conditions: 500 ppm, radish plants sprayed 24 h before contamination, graded 6 days after contamination
Protocol: Radish plants (“Pernod Clair” variety), sown in starter cups on a 50/50 peat soil-pozzolana substrate and grown at 17° C., are treated at the cotyledon stage by spraying with the active ingredient prepared as described above. Plants, used as controls, are treated with the mixture of acetone/tween/DMSO/water not containing the active material. After 24 hours, the plants are contaminated by spraying the cotyledons with an aqueous suspension of Alternaria brassicae spores (50 000 spores per ml). The spores are collected from a 15-day-old culture. The contaminated radish plants are incubated at 20° C. and at 100% relative humidity. Grading (% of efficacy) is carried out 6 days after the contamination, in comparison with the control plants.

Phytophthora infestans = format: in vivo; conditions: 500 ppm, tomato plants sprayed 24 h before contamination, graded 5 days after contamination
Botrytis cinerea = assay: In vivo preventive test on Botrytis cinerea (grey mould); conditions: 500 ppm, gherkin plants sprayed 24 h before contamination, graded 4 to 5 days after contamination
Protocol: Gherkin plants (“Vert petit de Paris” variety), sown in starter cups on a 50/50 peat soil-pozzolana substrate and grown at 24° C., are treated at the Z11 cotyledon stage by spraying with the active ingredient prepared as described above. Plants, used as controls, are treated with the mixture of acetone/tween/DMSO/water not containing the active material. After 24 hours, the plants are contaminated by spraying the cotyledons with an aqueous suspension of cryopreserved Botrytis cinerea spores (50 000 spores per ml). The spores are suspended in a nutrient solution composed of 10 g/L of PDB, 50 g/L of D-Fructose, 2 g/L of NH4NO3 and 1 g/L of KH2PO4. The contaminated gherkin plants are incubated at 17° C. and at 90% relative humidity.

[2] = logP by HPLC on reversed phase columns (EEC directive 79/831 Annex V.A8); format: physicochemical; conditions: method [a]: LC-MS at pH 2.7, 0.1% formic acid in water / acetonitrile; compounds of formula (I), Table 1
Phakopsora pachyrhizi = assay: In vivo Phakopsora test (soybeans)/preventive; conditions: 10 ppm, soybean plants, preventive, evaluated 7 days after inoculation
Protocol: To produce a suitable preparation of active compound, 1 part by weight of active compound is mixed with the stated amounts of solvent and emulsifier, and the concentrate is diluted with water to the desired concentration. To test for preventive activity, young plants are sprayed with the preparation of active compound at the stated rate of application. After the spray coating has dried on, the plants are inoculated with an aqueous spore suspension of the causal agent of soybean rust (Phakopsora pachyrhizi) and stay for 24 h without light in an incubation cabinet at approximately 24° C. and a relative atmospheric humidity of 95%. The plants remain in the incubation cabinet at approximately 24° C. and a relative atmospheric humidity of approximately 80% and a day/night interval of 12 h.

Pyrenophora teres = assay: In vivo preventive test on Pyrenophora teres (net blotch on barley); conditions: 500 ppm, barley plants sprayed 24 h before contamination, graded 14 days after contamination
Protocol: Barley plants (“Plaisant” variety), sown in starter cups on a 50/50 peat soil-pozzolana substrate and grown at 22° C., are treated at the 1-leaf stage (10 cm height) by spraying with the active ingredient prepared as described above. Plants, used as controls, are treated with the mixture of acetone/tween/DMSO/water not containing the active material. After 24 hours, the plants are contaminated by spraying the leaves with an aqueous suspension of Pyrenophora teres spores (12 000 spores per ml). The spores are collected from a 12-day-old culture. […] Grading (% of efficacy) is carried out 14 days after the contamination, in comparison with the control plants.

Row | Structure (SMILES) | Eff. % (Puccinia recondita) [%] | Eff. % (Uromyces appendiculatus) [%] | Eff. % [1] [%] | Eff. % (Septoria tritici) [%] | Eff. % (Sphaerotheca fuliginea) [%] | Eff. % (Alternaria brassicae) [%] | Eff. % (Phytophthora infestans) [%] | Eff. % (Botrytis cinerea) [%] | logP [2] | Eff. % (Phakopsora pachyrhizi) [%] | Eff. % (Pyrenophora teres) [%]
1 | CC(C)OC1Cc2cccc(NC(=O)c3cn(C)nc3C(F)F)c2C1 (stereo not shown) [Example 2] | 100 | 100 | 75 | 90 |  |  |  |  |  |  | 
2 | CC1c2cccc(NC(=O)c3cn(C)nc3C(F)F)c2CC1(C)C (stereo not shown) [Example 5] | 100 |  |  | 91 | 98 | 71 | 89 | 88 |  |  | 
3 | CC1Cc2c(NC(=O)c3cn(C)nc3C(F)F)cccc2C1(C)C (stereo not shown) [Example 6] | 100 | 98 |  | 95 | 100 |  |  | 95 | 3.55[a] | 96 | 
4 | CC1c2c(NC(=O)c3cn(C)nc3C(F)F)cccc2C(C)(C)C1C (stereo not shown) [Example 9] | 100 | 100 |  | 90 | 100 | 94 |  | 100 |  | 84 | 97

— US9249104B2, “Pyrazole indanyl carboxamides” (BAYER CROPSCIENCE AG, priority 2012, dated 2016)
